According to publication PMC7822874, “Chemoprotective antimalarials identified through quantitative high-throughput screening of Plasmodium blood and liver stage parasites” (Scientific Reports, 2021):
Where two headings read alike, the source gives them in different places.

Experiments:
[1] = tested on: Plasmodium falciparum Dd2 asexual blood stage parasites; assay: microbe, parasite or virus in culture; design: species or system Plasmodium falciparum Dd2 in human erythrocytes; single determination (one 11-point concentration-response curve); conditions: 72 h
in vitro = conditions: human
[2] = Plasmodium falciparum, DD2, Erythrocyte, read-out: AC50
[3] = HepG2-A16-CD81EGFP cells, uninfected

| Compound | AC50 [1, 2] | viability at 48 h, 1 µM (in vitro; [3]) | viability at 48 h, 3 µM (in vitro; [3]) | other results |
| --- | --- | --- | --- | --- |
| CCOC(=O)c1c(CNc2ccncc2)n(C)c2cc(Br)c(O)cc12 [MLS000714612-01] | 2660 nM | 90% | 86% |  |
| O=C(c1cnn2c(C(F)F)cc(-c3ccccc3)nc12)N1CCCCC1c1cccnc1 (stereo not shown) [MLS000728797-01] | 8410 nM | 102% |  | viability at 48 h (in vitro; [3]): 102% |
| CC(C)N1C(=S)N(Cc2ccco2)C(=O)C1CC(=O)Nc1ccccc1 (stereo not shown) [MLS000729199-01] | 1680 nM | 99% | 109% |  |
| COc1ccc(C(C(=O)Nc2ccc(C(C)C)cc2)N(Cc2ccco2)C(=O)CC2NC(=O)NC2=O)cc1 (stereo not shown) [MLS000729756-01] | 6680 nM | 99% | 94% |  |
| O=C(Nc1ccc(C2=NCCN2)cc1)c1ccc(C(=O)Nc2ccc(C3=NCCN3)cc2)c([N+](=O)[O-])c1 [MLS000737369-01] | 237 nM | 94% | 85% |  |
| CCN1CCC(Nc2ccnc3cc(Cl)ccc23)CC1 [MLS000737411-01] | 188 nM | 99% | 100% |  |
| Oc1ccc(Nc2ccnc3cc(Cl)ccc23)cc1 [MLS000737975-01] | 1680 nM |  |  | viability at 66 h (in vitro; [3]): 96.9% |
| O=C1C=C(O)C=CC1=CNNc1ccnc2cc(Cl)ccc12 [MLS000759655-01] | 596 nM | 101% |  | viability at 48 h (in vitro; [3]): 101% |
| O=C(O)c1ccc(N/N=C/c2cn(-c3ccccc3)nc2-c2cccs2)cc1 [MLS000759699-01] | 2660 nM | 112% | 103% |  |
| COc1ccc2ccc(O)c(CN3CC=C(c4ccccc4)CC3)c2c1 [MLS000760157-01] | 8410 nM |  |  | viability at 48 h, 1 µM (in vitro): 107%; viability at 48 h, 3 µM (in vitro): 101% |
| O=S(=O)(c1ccc2ccccc2c1)N1CCN(/C(S)=N/c2ccccc2F)CC1 [MLS000760214-01] | 4220 nM | 103% | 102% |  |
| CCCCNc1nc2sc3c(c2c(=O)n1-c1cccc(Cl)c1)CCN(C)C3 [MLS000762857-01] | 9440 nM | 106% |  | viability at 48 h (in vitro; [3]): 106% |
| COc1ccc(-c2csc3ncnc(Cl)c23)cc1 [MLS000765103-01] | 4220 nM | 86% | 86% |  |
| Nc1cc2ccncc2c2ccccc12 [MLS000766157-01] | 266 nM | 98% | 92% |  |
| O=C(Nc1cccc(-c2nc3ccccc3[nH]2)c1)c1ccc(C(=O)Nc2cccc(-c3nc4ccccc4[nH]3)c2)cc1 [MLS000766212-01] | 2660 nM | 105% | 96% |  |
| CCC1(OC(=O)CN)C(=O)OCc2c1cc1n(c2=O)Cc2cc3ccccc3nc2-1 (stereo not shown) [MLS000766263-01] |  |  |  | AC50 ([1]; Plasmodium falciparum, DD2, Erythrocyte): 6680 nM; viability (in vitro): 24.7% |
| O=C1/C(=C/Nc2cccc(S(=O)(=O)NC3=NCCCCC3)c2)c2ccccc2C(=O)N1Cc1ccccc1 [MLS000775273-01] | 13300 nM |  |  | viability at 66 h (in vitro; [3]): 93.2% |
| CC(C)CCNC(=O)c1cc(C(=O)c2cc(Br)ccc2O)cn(CCC(C)C)c1=O [MLS000775608-01] | 944 nM |  |  | viability at 66 h (in vitro): 105% |
| C=C(C)CSc1nc2sc3c(c2c(=O)n1C1CCCCC1)CCN(C)C3 [MLS000779440-01] | 2370 nM | 98% | 91% |  |

| Compound | AC50 [1, 2] | viability at 48 h, 1 µM (in vitro; [3]) | viability at 48 h, 3 µM (in vitro; [3]) | other results |
| --- | --- | --- | --- | --- |
| Cn1nc(C(F)(F)F)c(-c2cccc(C(F)(F)F)c2)c1NC(=O)Nc1ccc(F)cc1 [MLS000830770-01] | 2370 nM | 98% | 103% |  |
| CC(NCc1ccccc1)c1ccccc1O (stereo not shown) [MLS000850790-01] | 5310 nM |  |  | viability at 66 h (in vitro; [3]): 96.3% |
| C=CC1CN2CCC1CC2C(OC(C)=O)c1ccnc2ccc(OC)cc12 (stereo not shown) [MLS000851200-01] | 1680 nM |  |  | viability at 66 h (in vitro): 99.9% |
| COC(=O)c1c(-c2c(Cl)cccc2Cl)noc1NC(=O)NN1CCCCC1 [MLS000861266-01] | 2370 nM | 93% | 87% |  |
| Oc1ccc(C2NCc3ccccc3-n3cccc32)cc1Cl (stereo not shown) [MLS000878874-01] |  |  |  | AC50 ([1]; read-out: AC50): 1190 nM; viability at 66 h (in vitro): 108% |
| COc1cc(O)c(C(CCN2CCCC(C)C2)c2cc(OC)c(OC)c(OC)c2)c(OC)c1 (stereo not shown) [MLS000879467-01] | 1880 nM | 90% | 88% |  |
| COc1ccc(C(CCN2CCCCC2)c2c(O)cc(OC)cc2OC)cc1 (stereo not shown) [MLS000879486-01] | 1330 nM | 90% | 85% |  |
| CCN(CC)CCC(c1ccc(OC)cc1)c1c(O)cc(OC)cc1OC (stereo not shown) [MLS000879488-01] | 6680 nM |  |  | viability at 66 h (in vitro; [3]): 99.6% |
| CCN(CC)CCC(c1ccc2c(c1)OCO2)c1c(O)cc(OC)cc1OC (stereo not shown) [MLS000879498-01] | 4220 nM |  |  | viability at 66 h (in vitro; [3]): 103% |
| COc1cc(O)c(C(CCN2CCCC(C)C2)c2ccc(N(C)C)cc2)c(OC)c1 (stereo not shown) [MLS000879516-01] | 1680 nM | 110% |  | viability at 48 h (in vitro; [3]): 110% |
| COc1cc(O)c(C(CCN2CCN(c3ccccc3)CC2)c2ccc(N(C)C)cc2)c(OC)c1 (stereo not shown) [MLS000879536-01] | 596 nM | 102% | 99% |  |
| COc1ccc(C(CCN2CCN(c3ccccc3)CC2)c2c(O)cc(OC)cc2OC)cc1 (stereo not shown) [MLS000879538-01] | 944 nM | 95% | 95% |  |
| CCN1CCN(Cc2ccc(NC(=O)c3cc(NC(=O)c4nccnc4N)cc(OC)c3)cc2C(F)(F)F)CC1 [MLS000911568-01] | 4730 nM | 89% | 87% |  |
| O=S(=O)(c1ccccc1)c1nnn2c1nc(NC1CCN(Cc3ccccc3)CC1)c1cc(Cl)ccc12 [MLS000925207-01] | 2990 nM |  |  | viability at 66 h (in vitro; [3]): 101% |
| CCC(=O)N1CCc2cc(Br)cc(S(=O)(=O)N3CCCC(C(=O)NC(C)(C)C)C3)c21 (stereo not shown) [MLS000937025-01] | 3350 nM | 98.3% |  | viability at 48 h (in vitro; [3]): 98.3% |
| Oc1ccccc1CN1CCCC(N2CCN(c3cccc(C(F)(F)F)c3)CC2)C1 (stereo not shown) [MLS000998830-01] | 1330 nM | 103% | 105% |  |
| COc1ccc(CN2CCCC(C(=O)c3ccc(Cl)cc3)C2)c(O)c1 (stereo not shown) [MLS000998855-01] | 531 nM |  |  | viability at 48 h, 1 µM (in vitro): 101%; viability at 48 h, 3 µM (in vitro): 103% |
| COc1ccc(CN2CCCC(N3CCc4ccccc4C3)C2)c(O)c1 (stereo not shown) [MLS001001490-01] | 2990 nM | 84% | 89% |  |
| O=S(=O)(c1ccc(Cl)cc1)N1CCN(/C(S)=N/c2ccccc2F)CC1 [MLS001002653-01] | 2370 nM | 97% | 94% |  |

| Compound | AC50 [1, 2] | viability at 48 h, 1 µM (in vitro; [3]) | viability at 48 h, 3 µM (in vitro; [3]) | other results |
| --- | --- | --- | --- | --- |
| CCCn1c(SCC(=O)Nc2cc(Cl)ccc2Cl)n[nH]c1=O [MLS001002877-01] | 5310 nM | 97% | 94% |  |
| Cc1ccccc1OCC(O)CN(Cc1ccccc1O)C1CCCCC1 (stereo not shown) [MLS001002964-01] | 119 nM | 85% | 90% |  |
| COc1ccccc1N1CCN(C(=O)c2ccc3c(=O)n(Cc4ccc5c(c4)OCO5)c(=O)[nH]c3c2)CC1 [MLS001028591-01] | 2990 nM |  |  | viability at 66 h (in vitro; [3]): 94% |
| Cc1ccccc1C(=O)NC(CC(C)C)C(=O)OCC(=O)c1c(N)n(C)c(=O)n(C)c1=O (stereo not shown) [MLS001033160-01] | 2660 nM |  |  | viability at 66 h (in vitro; [3]): 106% |
| CCn1c2c(c(=N)c3ccccc31)CCC2 [MLS001047391-01] | 6680 nM |  |  | viability at 66 h (in vitro; [3]): 97.3% |
| CCn1c2c(c(=N)c3c1CCC3)CCCC2 [MLS001047512-01] | 13300 nM |  |  | viability at 66 h (in vitro; [3]): 100% |
| CCCc1nnc(NC(=O)c2cn(CC)c3cc(N4CCN(C)CC4)c(F)cc3c2=O)s1 [MLS001049245-01] | 8410 nM |  |  | viability at 66 h (in vitro; [3]): 105% |
| CCCNC(=O)c1ccc(N2CCC3(CC2)CC(c2cccc(Br)c2)=NO3)c(NC(=O)c2ccco2)c1 [MLS001074397-01] | 2990 nM | 118% | 104% |  |
| CCOc1cc(C(=O)N2CCC(CC3CC(c4cccc(Br)c4)=NO3)(C(=O)NCC3CCCCC3)CC2)cc(OCC)c1OCC (stereo not shown) [MLS001074456-01] | 1680 nM | 106% | 103% |  |
| Cc1ccc(S(=O)(=O)NC(=O)Nc2ccc(N(C)C)cc2)cc1 [MLS001098045-01] | 1330 nM | 100% | 99% |  |
| Cc1onc(-c2ccc(Cl)cc2)c1-c1ccnn1S(=O)(=O)c1ccc(Cl)cc1 [MLS001111121-01] | 1880 nM |  |  | viability at 66 h (in vitro; [3]): 100% |
| O=S(=O)(c1ccc(Cl)cc1)N1CCN(C(S)=NCC2CCCO2)CC1 (stereo not shown) [MLS001124005-01] | 1880 nM | 85% | 85% |  |
| Cc1ccc(S(=O)(=O)c2nnn3c2nc(N2CCN(c4ccccn4)CC2)c2ccccc23)cc1 [MLS001124278-01] | 7500 nM | 98.6% |  | viability at 48 h (in vitro; [3]): 98.6% |
| Nc1nonc1-n1nnc(C(=O)N/N=C/c2cccs2)c1-c1ccc2c(c1)OCO2 [MLS001142649-01] | 1680 nM | 92% | 91% |  |
| COc1ccc(CCn2c(=N)c(C(=O)NC3CCCC3)cc3c(=O)n4cccc(C)c4nc32)cc1 [MLS001147827-01] | 750 nM |  |  | viability at 66 h (in vitro; [3]): 94.5% |
| CCCc1cc(=O)oc2cc(C)cc(OC(C)C(=O)NCC(O)c3ccccc3)c12 (stereo not shown) [MLS001158075-01] | 841 nM | 84% | 88% |  |
| CCCc1cc(=O)oc2cc(C)cc(OCC(=O)NC3CC3)c12 [MLS001159103-01] | 4730 nM | 121% | 104% |  |
| CC(OC(=O)CCc1cc(C(C)(C)C)c(O)c(C(C)(C)C)c1)C(=O)NC1CC1 (stereo not shown) [MLS001159754-01] | 4730 nM | 104% | 101% |  |
